Data published in US20240174636A1, “NOVEL INDOLEAMINE 2,3-DIOXYGENASE INHIBITORS, PROCESSES FOR THE PREPARATION THEREOF AND PHARMACEUTICAL COMPOSITIONS COMPRISING THE SAME” (YUHAN CORPORATION, priority 2021, published 2024).

Assays:
IDO1 [1] = target: T1, IDO1 (Homo sapiens, UniProt P14902); test: IDO1 cellular activity using Hela cells (IFN-gamma induced IDO expression, kynurenine absorbance at 480 nm); format: cell-based; conditions: IDO induced with interferon gamma 50 ng/ml, 24 h compound incubation, read-out: Inhibitory Activity (IC50)
T1 sequence (P14902 whole entry): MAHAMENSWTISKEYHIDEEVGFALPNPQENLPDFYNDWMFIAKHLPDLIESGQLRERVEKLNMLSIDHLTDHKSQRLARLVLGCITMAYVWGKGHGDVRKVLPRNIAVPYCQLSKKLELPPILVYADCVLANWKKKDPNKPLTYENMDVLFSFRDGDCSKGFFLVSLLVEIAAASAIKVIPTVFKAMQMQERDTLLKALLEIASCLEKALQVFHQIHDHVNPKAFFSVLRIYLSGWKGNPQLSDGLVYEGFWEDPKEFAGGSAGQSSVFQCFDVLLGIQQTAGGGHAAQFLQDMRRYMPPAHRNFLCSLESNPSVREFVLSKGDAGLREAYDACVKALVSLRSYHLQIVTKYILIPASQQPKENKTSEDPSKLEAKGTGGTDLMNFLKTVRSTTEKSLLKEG
Method: Hela cells were seeded at a density of 20000 cells/well in 100 μl of a culture medium (EMEM supplemented with 10% FBS, penicillin 100 U/ml, and streptomycin 100 μg/ml) in a tissue culture-treated 96 well plate. The cells were cultured in a 5% carbon dioxide incubator for 24 hours, treated with recombinant human interferon gamma at the concentration of 50 ng/ml, and then cultured for 48 hours in a 5% carbon dioxide incubator to induce IDO expression.
The activities were measured using IDO1 cellular activity-measuring substrate (IDO1 cellular activity quickDetect supplements catalog: #62000-2, BPS Bioscience). Specifically, an assay medium was prepared by diluting IDO1 assay medium substrate 1 and IDO1 assay medium supplement 2 in a culture medium at a ratio of 1:100, respectively. The test compounds were diluted to the predetermined concentrations in the fresh assay medium. After removing the culture medium using a multi-pipet, 200 μl of each assay medium containing the test material was added into the respective well, followed by incubating in a 5% carbon dioxide incubator for 24 hours. The next day, 140 μl of culture medium from each well was transferred to a new 96-well plate. 10 μl of 6.1N trichloroacetic acid was added into each well, which was then cultured in a 50° C. incubator for 30 minutes. The plate was centrifuged at 2500 rpm for 10 minutes to settle any sediment. A detection reagent solution was prepared by diluting the detection reagent (component D kit, catalog: #62000-2, BPS Bioscience) 50-fold in acetic acid. 100 μl of the supernatant taken from the centrifuged plate was transferred to a new transparent 96-well plate and then 100 μl of the detection reagent solution was added thereto. After reacting at room temperature for 10 minutes, absorbance was measured at 480 nm wavelength. For analysis of the results, the absorbance (At) of the well containing Hela cells in which IDO protein expression was induced without treatment of an inhibitor was 100%; and the absorbance (Ab) of the well containing Hela cells in which IDO protein expression was not induced was 0. The % absorbance was calculated according to the following equation: % Absorbance=(A−Ab)/(At−Ab), A=absorbance of the well treated with the test compound.
The results obtained by calculating the 50% inhibitory concentration (C50) of each compound, from the absorbance values obtained as described above, are shown in Table 1 below.

IDO1 [2] = target: T1, IDO1; test: IDO1 cellular activity using HEK293 cells transfected with IDO1 expression vector; format: cell-based; design: host or cells: HEK293 cells, transient transfection with Lipofectamine 2000; conditions: 24 h compound incubation, read-out: Inhibitory Activity (IC50)
Method: HEK293 cells were seeded at a density of 30000 cells/well in 100 μl of a culture medium (DMEM supplemented with 10% FBS, penicillin 100 U/ml, and streptomycin 100 μg/ml) in a tissue culture-treated 96 well plate. The cells were cultured in a 5% carbon dioxide incubator for 24 hours, transfected with the IDO1 expression vector (component A in IDO1 cell-based assay kit, catalog #72031, BPS Bioscience) using Lipofectamine 2000 (Life Technologies, #11668027), and then cultured for 24 hours in a 5% carbon dioxide incubator to express the IDO protein.
The activities were measured using a IDO1 cell-based assay kit (catalog #72031, BPS Bioscience). Specifically, an assay medium was prepared by diluting IDO1 assay medium substrate 1 and IDO1 assay medium supplement 2 in a culture medium at a ratio of 1:100, respectively. The test compounds were diluted to the predetermined concentrations in the fresh assay medium. After removing the culture medium using a multi-pipet, 200 μl of each assay medium containing the test material was added into respective well, followed by incubating in a 5% carbon dioxide incubator for 24 hours. The next day, 140 μl of culture medium from each well was transferred to a new 96-well plate. 10 μl of 6.1N trichloroacetic acid was added into each well, which was then cultured in a 50° C. incubator for 30 minutes. The plate was centrifuged at 2500 rpm for 10 minutes to settle any sediment. A detection reagent solution was prepared by diluting the detection reagent (component D in IDO1 cell-based assay kit, catalog #72031 BPS Bioscience) 50-fold in acetic acid. 100 μl of the supernatant taken from the centrifuged plate was transferred to a new transparent 96-well plate and then 100 μl of the detection reagent solution was added thereto. After reacting at room temperature for 10 minutes, absorbance was measured at 480 nm wavelength. For analysis of the results, the absorbance (At) of the well containing HEK293 cells in which IDO protein was expressed without treatment of an inhibitor was 100%; and the absorbance (Ab) of the well containing HEK293 cells in which IDO protein was not expressed was 0. The % absorbance was calculated according to the following equation: % Absorbance=(A−Ab)/(At−Ab), A=absorbance of the well treated with the test compound.

[3] = Pharmacokinetics through oral administration in normal rats; format: in vivo; conditions: 10 mg/5 mL/kg; for Maximum plasma concentration: suspension in 0.5% methyl cellulose containing 0.2% Tween 80
Method: The pharmacokinetics of the compounds of Examples 2, 5 and 25 and BMS-986205 (control) were measured in rats, respectively. The compounds of Examples 2, 5 and 25 and BMS-986205 (control) were each suspended in 0.5% methyl cellulose containing 0.2% Tween 80 and then orally administered to rats at a dose of 10 mg/5 mL/kg. Blood samples were collected from the rat in predetermined times. The concentration of the compound in each sample was analyzed to obtain the blood concentration profiles (FIG. 1).

| Compound | IC50 (IDO1 [1]) [nM] | IC50 (IDO1 [2]) [nM] | Area under the curve [3] [ng·h/mL] | Time to maximum plasma concentration [3] [h] | Maximum plasma concentration [3] [ng/mL] |
| --- | --- | --- | --- | --- | --- |
| C[C@H](C[C@H]1CC[C@@H](c2ccnc3ccc(F)cc32)CC1)Nc1nc2ncc(Cl)cc2s1 [Example 23, 6-chloro-N-((R)-1-((cis)-4-(6-fluoroquinolin-4-yl)cyclohexyl)propan-2-yl)thiazolo[4,5-b]pyridin-2-amine] | 27 | 7.6 |  |  |  |
| CCOc1ccc2nc(N[C@H](CC)C[C@H]3CC[C@@H](c4ccnc5ccc(F)cc54)CC3)sc2c1 [Example 20, 6-ethoxy-N-((R)-1-((cis)-4-(6-fluoroquinolin-4-yl)cyclohexyl)butan-2-yl)benzo[d]thiazol-2-amine] | 24 | 14.3 |  |  |  |
| C[C@H](C[C@H]1CC[C@@H](c2ccnc3ccc(F)cc32)CC1)Nc1ncnc2cc(Br)ccc12 [Example 2, 7-bromo-N-((R)-1-((cis)-4-(6-fluoroquinolin-4-yl)cyclohexyl)propan-2-yl)quinazolin-4-amine] | 8.8 |  | 108441.1 | 1 | 18050.3 |
| C[C@H](C[C@H]1CC[C@@H](c2ccnc3ccc(F)cc32)CC1)Nc1nc2cccnc2o1 [Example 30, N-((R)-1-((cis)-4-(6-fluoroquinolin-4-yl)cyclohexyl)propan-2-yl)oxazolo[5,4-b]pyridin-2-amine] | 23.5 | 19.1 |  |  |  |
| C[C@H](C[C@H]1CC[C@@H](c2ccnc3ccc(F)cc32)CC1)Nc1c(F)c(=O)oc2cc(Br)ccc12 [Example 11, 7-bromo-3-fluoro-4-(((R)-1-((cis)-4-(6-fluoroquinolin-4-yl)cyclohexyl)propan-2-yl)amino)-2H-chromen-2-one] | 18.7 | 18.3 |  |  |  |
| C[C@H](C[C@H]1CC[C@H](c2ccnc3ccc(F)cc32)CC1)Nc1c(F)c(=O)oc2cc(Br)ccc12 [Example 12, 7-bromo-3-fluoro-4-(((R)-1-((trans)-4-(6-fluoroquinolin-4-yl)cyclohexyl)propan-2-yl)amino)-2H-chromen-2-one] | 7.2 | 11.2 |  |  |  |
| C[C@H](C[C@H]1CC[C@H](c2ccnc3ccc(F)cc32)CC1)Nc1c(F)c(=O)oc2cc(Cl)ccc12 [Example 10, 7-chloro-3-fluoro-4-(((R)-1-((trans)-4-(6-fluoroquinolin-4-yl)cyclohexyl)propan-2-yl)amino)-2H-chromen-2-one] | 10.2 | 9.5 |  |  |  |
| C[C@H](C[C@H]1CC[C@@H](c2ccnc3ccc(F)cc32)CC1)Nc1nc2ncc(Cl)cc2o1 [Example 31, 6-chloro-N-((R)-1-((cis)-4-(6-fluoroquinolin-4-yl)cyclohexyl)propan-2-yl)oxazolo[4,5-b]pyridin-2-amine] | 17.5 | 9.1 |  |  |  |
| C[C@H](C[C@H]1CC[C@@H](c2ccnc3ccc(F)cc32)CC1)Nc1nc2ncccc2o1 [Example 32, N-((R)-1-((cis)-4-(6-fluoroquinolin-4-yl)cyclohexyl)propan-2-yl)oxazolo[4,5-b]pyridin-2-amine] | 11.4 | 8.7 |  |  |  |
| C[C@H](C[C@H]1CC[C@@H](c2ccnc3ccc(F)cc32)CC1)Nc1nc2cccc(Cl)c2s1 [Example 18, 7-chloro-N-((R)-1-((cis)-4-(6-fluoroquinolin-4-yl)cyclohexyl)propan-2-yl)benzo[d]thiazol-2-amine] | 7.5 | 4 |  |  |  |
| C[C@H](C[C@H]1CC[C@H](c2ccnc3ccc(F)cc32)CC1)Nc1cc(=O)oc2cc(Br)ccc12 [Example 5, 7-bromo-4-(((R)-1-((trans)-4-(6-fluoroquinolin-4-yl)cyclohexyl)propan-2-yl)amino)-2H-chromen-2-one] | 16 |  | 73460.2 | 4 | 4476.3 |
| C[C@H](C[C@H]1CC[C@@H](c2ccnc3ccc(F)cc32)CC1)Nc1nc2c(F)cc(F)cc2s1 [Example 17, 4,6-difluoro-N-((R)-1-((cis)-4-(6-fluoroquinolin-4-yl)cyclohexyl)propan-2-yl)benzo[d]thiazol-2-amine] | 19 | 20.6 |  |  |  |
| C[C@@H](C(=O)Nc1ccc(Cl)cc1)C1CCC(c2ccnc3ccc(F)cc23)CC1 (stereo partly shown) [BMS-986205, reference compound] |  |  | 3976.7 | 1 | 656.8 |
| CCOc1ccc2nc(N[C@H](C)C[C@H]3CC[C@@H](c4ccnc5ccc(F)cc54)CC3)sc2c1 [Example 19, 6-ethoxy-N-((R)-1-((cis)-4-(6-fluoroquinolin-4-yl)cyclohexyl)propan-2-yl)benzo[d]thiazol-2-amine] | 14 | 8 |  |  |  |
| CC[C@H](C[C@H]1CC[C@@H](c2ccnc3ccc(F)cc32)CC1)Nc1nc2ccc(Cl)cc2o1 [Example 27, 6-chloro-N-((R)-1-((cis)-4-(6-fluoroquinolin-4-yl)cyclohexyl)butan-2-yl)benzo[d]oxazol-2-amine] | 23 | 7.4 |  |  |  |
| C[C@H](C[C@H]1CC[C@@H](c2ccnc3ccc(F)cc32)CC1)Nc1nc2c(F)cccc2o1 [Example 28, 4-fluoro-N-((R)-1-((cis)-4-(6-fluoroquinolin-4-yl)cyclohexyl)propan-2-yl)benzo[d]oxazol-2-amine] | 12 | 8.6 |  |  |  |
| COc1ccc2nc(N[C@H](C)C[C@H]3CC[C@@H](c4ccnc5ccc(F)cc54)CC3)oc2c1 [Example 26, N-((R)-1-((cis)-4-(6-fluoroquinolin-4-yl)cyclohexyl)propan-2-yl)-6-methoxybenzo[d]oxazol-2-amine] | 15 | 6.5 |  |  |  |
| C[C@H](C[C@H]1CC[C@@H](c2ccnc3ccc(F)cc32)CC1)Nc1nc2ccc(F)cc2o1 [Example 29, 6-fluoro-N-((R)-1-((cis)-4-(6-fluoroquinolin-4-yl)cyclohexyl)propan-2-yl)benzo[d]oxazol-2-amine] | 10 | 9.9 |  |  |  |
| COc1ccc2nc(N[C@H](C)C[C@H]3CC[C@@H](c4ccnc5ccc(F)cc54)CC3)sc2n1 [Example 22, N-((R)-1-((cis)-4-(6-fluoroquinolin-4-yl)cyclohexyl)propan-2-yl)-5-methoxythiazolo[5,4-b]pyridin-2-amine] | 16 | 10.9 |  |  |  |
